Data taken from paper PMC9578396, “Intrinsic Antibacterial Activity of Xeruborbactam In Vitro: Assessing Spectrum and Mode of Action” (Antimicrobial Agents and Chemotherapy, 2022).
Where two headings read alike, the source gives them in different places.

How the values were obtained:
Format in all cases: cell-based
[1] = system: Enterobacterales; assay: Broth microdilution MIC (CLSI), Enterobacterales; details: read-out: antibacterial potency (MIC)
Excerpt: (§1) Bacterial isolates were subjected to broth microdilution susceptibility testing, performed according to Clinical and Laboratory Standards Institute (CLSI) methods ([46]), using panels prepared in-house. Meropenem was purchased from Sandoz, and all other antibiotics were from Sigma-Aldrich. Xeruborbactam was synthesized at Qpex Biopharma, San Diego, CA. Avibactam was purchased from eNovation Chemicals LLC, Bridgewater, NJ, USA; zidebactam was from MedKoo Biosciences, Inc., Morrisville, NC, and nacubactam was from Advanced ChemBlocks, Hayward, CA. Durlobactam was synthesized at Acme Bioscience, Palo Alto, CA, USA.

[2] = system: Klebsiella pneumoniae; assay: microbe, parasite or virus in culture; details: Klebsiella pneumoniae
Method in brief: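 MICs by CLSI broth microdilution in in-house panels. Strains tested were engineered strains carrying porin and efflux mutation combinations, KPC-producing clinical isolates and derivatives cured of KPC plasmids, and KPC-producing clinical isolates enriched for porin mutations.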

[3] = system: Escherichia coli; assay: Broth microdilution MIC (CLSI), Escherichia coli
Excerpt: (§2) (i) Panels of engineered bacterial strains containing various combinations of porin and efflux mutations were used. The construction of all the strains used in the study is described in detail in references, [44], and [45]. (ii) KPC-producing clinical isolates and their derivatives that lost KPC plasmids were used also. These strains and their origins are described in the Table S2. (iii) Finally, KPC-producing clinical isolates enriched in strains with porin mutations were used. The mutations identified include various deletions, insertions, nonsense mutations, and decreased expression. Most of the isolates were obtained from JMI Laboratories or International Health Management Associates (IHMA); they were collected in the course of global surveillance studies.
(§3) Bacterial isolates were subjected to broth microdilution susceptibility testing, performed according to Clinical and Laboratory Standards Institute (CLSI) methods ([46]), using panels prepared in-house. […] Xeruborbactam was synthesized at Qpex Biopharma, San Diego, CA. Avibactam was purchased from eNovation Chemicals LLC, Bridgewater, NJ, USA; zidebactam was from MedKoo Biosciences, Inc., Morrisville, NC, and nacubactam was from Advanced ChemBlocks, Hayward, CA. Durlobactam was synthesized at Acme Bioscience, Palo Alto, CA, USA.

[4] = system: Acinetobacter baumannii; assay: Broth microdilution MIC (CLSI), Acinetobacter baumannii; details: Acinetobacter baumannii
Excerpt: as §2, §3

[5] = system: Pseudomonas aeruginosa; assay: Broth microdilution MIC (CLSI), Pseudomonas aeruginosa; details: Pseudomonas aeruginosa
Excerpt: as §2, §3

[6] = system: Enterobacter cloacae species complex; assay: Broth microdilution MIC (CLSI), Enterobacter cloacae; details: Enterobacter cloacae, read-out: MIC
Excerpt: as §1

[7] = KPM1026a, parent, read-out: MIC
[8] = strain KPM1026a, wild type, read-out: MIC
[9] = strain KPM1027, ramR, read-out: MIC
[10] = strain KPM1171, ramR ompK36_1171, read-out: MIC
[11] = strain KPM2040, ompK36_2040, read-out: MIC
[12] = strain KPM2613, ΔompK35 ompK36_2040
[13] = EC1078, PBP2 same as MG1655, PBP3 I332V
[14] = EC1081, PBP2 same as MG1655, PBP3 Q227H
[15] = EC1085, PBP2 T331P, PBP3 A233T I332V
[16] = EC1088, PBP2 A308G, PBP3 same as MG1655
[17] = EC1098, PBP2 V217M, PBP3 YRIN ins, I532L
[18] = EC1103, PBP2 same as MG1655, PBP3 YRIN ins, Q227H, E349K, I532L
[19] = EC1105, PBP2 A543T, PBP3 YRIN ins, Q227H, E349K, I532L
[20] = EC1119, PBP2 same as MG1655, PBP3 YRIN ins, Q227H, E349K, I532L
[21] = EC1121, PBP2 V217M, PBP3 YRIN ins, E349K, I532L
[22] = Escherichia coli, strain ECM5497, wild type, read-out: MIC
[23] = Escherichia coli, strain ECM6001, ΔacrB
[24] = Escherichia coli, strain ECM6502, marR (AcrAB overexpression)
[25] = strain AB1007, wild type, read-out: MIC
[26] = strain ACM1015, ΔadeIJK ΔadeABC
[27] = strain ACM1027, adeN (AdeIJK overexpression)
[28] = strain ACM1030, adeS (AdeABC overexpression)
[29] = strain PAM1020, wild type, read-out: MIC
[30] = strain PAM1032, nalB (MexAB-OprM overexpression)
[31] = strain PAM1033, nfxB (MexCD-OprJ overexpression)
[32] = strain PAM1034, nfxC (MexEF-OprN overexpression)

CC1=C[C@@H]2CN(C(=O)N2OS(=O)(=O)O)[C@@H]1C(N)=O [Durlobactam]
1: MIC ([3]; EC1097, PBP2 M574I, PBP3 Q227H) | MIC [3, 19]
4 µg/mL: MIC [2, 11] | MIC [5, 31]
32 µg/mL: MIC [2, 10] | MIC ([4]; strain ACM1013, ΔadeIJK)
0.5 µg/mL: MIC [2, 8] | MIC [2, 9] | MIC ([2]; strain KPM2600, ΔompK35) | MIC [3, 22] | MIC [3, 23]
8 µg/mL: MIC ([2]; KPM3532 (TolQ::M189K), alone) | MIC ([2]; KPM3532, TolQ::M189K) | MIC [2, 12] | MIC ([5]; after inactivation of MexAB-OprM, read-out: MIC) | MIC ([5]; strain PAM1106, mexA::Tet) | MIC ([5]; strain PAM1154, oprM::Hg)
0.25: MIC [3, 14] | MIC [3, 18]
> 256 µg/mL: MIC [5, 30]
32: MIC [3, 15]
64 µg/mL: MIC [4, 25] | MIC ([4]; strain ACM1014, ΔadeABC) | MIC [4, 28] | MIC ([5]; before inactivation of MexAB-OprM (wild type), read-out: MIC) | MIC [5, 29]
0.25 µg/mL: MIC ([2]; KPM1026a, alone, read-out: MIC) | MIC [2, 7] | MIC ([2]; strain KPM2696, ΔacrB) | MIC [3, 24]
0.5: MIC [3, 16] | MIC [3, 17] | MIC [3, 21]
8: MIC [3, 13] | MIC [3, 20]
128 µg/mL: MIC [4, 27] | MIC [5, 32]
0.125 to 0.5 µg/mL: MIC [1]
16 µg/mL: MIC ([2]; KPM3534 (TolQ::S31F), alone) | MIC ([2]; KPM3534, TolQ::S31F) | MIC ([2]; KPM4235, TolQ::IP(183–1844)PR) | MIC ([2]; KPM4236, TolQ::TAA at aa 103) | MIC ([2]; KPM4238, TolQ::S25F) | MIC ([2]; KPM4239, TolQ::S28F) | MIC ([2]; KPM4240, TolQ::S25Y) | MIC [4, 26]

CN(C)c1cc(NC(=O)CNC(C)(C)C)c(O)c2c1C[C@H]1C[C@H]3[C@H](N(C)C)C(O)=C(C(N)=O)C(=O)[C@@]3(O)C(O)=C1C2=O [Tigecycline]
0.5 µg/mL: MIC ([2]; clinical isolate KP1074, OmpK35 NF, OmpK36 PFN (GD), read-out: MIC) | MIC ([3]; Escherichia coli, clinical isolate EC1078, OmpK35 NF, OmpK36 NF, read-out: MIC) | MIC ([3]; Escherichia coli, clinical isolate EC1081, OmpK35 FN, OmpK36 FN, read-out: MIC)
4 µg/mL: MIC ([2]; clinical isolate KP1469, OmpK35 NF, OmpK36 NF, read-out: MIC) | MIC ([2]; clinical isolate KP1598, OmpK35 NF, OmpK36 PFN (GD), read-out: MIC) | MIC ([3]; Escherichia coli, clinical isolate EC1119, OmpK35 NF, OmpK36 NF, read-out: MIC) | MIC ([6]; clinical isolate ECL1079, OmpK35 NF, OmpK36 NF)
8 µg/mL: MIC ([6]; clinical isolate ECL1057, OmpK35 FN, OmpK36 NF)
0.125 µg/mL: MIC ([3]; Escherichia coli, clinical isolate EC1088, OmpK35 FN, OmpK36 FN, read-out: MIC)
2 µg/mL: MIC ([6]; clinical isolate ECL1126, OmpK35 FN, OmpK36 FN) | MIC ([6]; clinical isolate ECL1131, OmpK35 NF, OmpK36 FN)
1 µg/mL: MIC ([2]; clinical isolate KP1004, OmpK35 NF, OmpK36 FN, read-out: MIC) | MIC ([2]; clinical isolate KP1070, OmpK35 NF, OmpK36 FN, read-out: MIC) | MIC ([2]; clinical isolate KP1093, OmpK35 NF, OmpK36 PFN (GD), read-out: MIC) | MIC ([2]; clinical isolate KP1251, OmpK35 NF, OmpK36 FN, read-out: MIC) | MIC ([2]; clinical isolate KP1274, OmpK35 FN, OmpK36 FN, read-out: MIC) | MIC ([2]; clinical isolate KP1463, OmpK35 NF, OmpK36 NF, read-out: MIC) | MIC ([3]; Escherichia coli, clinical isolate EC1097, OmpK35 FN, OmpK36 FN, read-out: MIC) | MIC ([3]; Escherichia coli, clinical isolate EC1098, OmpK35 NF, OmpK36 FN, read-out: MIC)
0.25 µg/mL: MIC ([3]; Escherichia coli, clinical isolate EC1085, OmpK35 FN, OmpK36 FN, read-out: MIC) | MIC ([3]; Escherichia coli, clinical isolate EC1121, OmpK35 NF, OmpK36 FN, read-out: MIC)

O=C(NNC(=O)[C@@H]1CC[C@@H]2CN1C(=O)N2OS(=O)(=O)O)[C@@H]1CCCNC1 [Zidebactam]
> 256 µg/mL: MIC [4, 25] | MIC ([4]; strain ACM1013, ΔadeIJK) | MIC ([4]; strain ACM1014, ΔadeABC) | MIC [4, 26] | MIC [4, 27] | MIC [4, 28]
2 µg/mL: MIC [5, 29] | MIC [5, 32] | MIC ([5]; strain PAM1106, mexA::Tet) | MIC ([5]; strain PAM1154, oprM::Hg)
8: MIC [3, 13] | MIC [3, 20]
4 µg/mL: MIC [5, 30]
0.5 µg/mL: MIC [3, 24]
0.125 µg/mL: MIC [3, 22] | MIC [3, 23] | MIC [5, 31]
0.125: MIC [3, 14]
0.125 to 0.5 µg/mL: MIC [1]
4 fold: fold effect on MIC ([3]; overexpression of AcrAB in E. coli)
0.5: MIC [3, 19] | MIC [3, 21]
0.25 µg/mL: MIC ([2]; KPM1026a, alone, read-out: MIC) | MIC [2, 7] | MIC [2, 8] | MIC [2, 9] | MIC ([2]; strain KPM2600, ΔompK35) | MIC ([2]; strain KPM2696, ΔacrB)
0.25: MIC [3, 16] | MIC ([3]; EC1097, PBP2 M574I, PBP3 Q227H) | MIC [3, 17] | MIC [3, 18]
> 64 µg/mL: MIC ([2]; KPM3532 (TolQ::M189K), alone) | MIC ([2]; KPM3532, TolQ::M189K) | MIC ([2]; KPM3534 (TolQ::S31F), alone) | MIC ([2]; KPM3534, TolQ::S31F) | MIC ([2]; KPM4235, TolQ::IP(183–1844)PR) | MIC ([2]; KPM4236, TolQ::TAA at aa 103) | MIC ([2]; KPM4238, TolQ::S25F) | MIC ([2]; KPM4239, TolQ::S28F) | MIC ([2]; KPM4240, TolQ::S25Y) | MIC [2, 10] | MIC [2, 11] | MIC [2, 12]
16: MIC [3, 15]
